Measurements: US20260286316A1, “METHOD OF PRODUCTION OF MODIFIED PHAGE AND METHOD OF TREATMENT USING SAME” (priority 2022, published 2026)

What was measured:
[1] = test system: S. aureus ATCC51650 and CI11; experiment: Time-dependent interaction of phage J-Sa36 and clindamycin (OD600); assay type: cell-based, Staphylococcus aureus; conditions: ½ MIC clindamycin only or J-Sa36 (MOI 0.2) only
Method: OD600 readings were taken at addition of either phage or clindamycin and following the 24-hour incubation.
The total amount of phage J-Sa36 added into the culture at different time points was adjusted to maintain MOI=0.2, according to the number of bacteria measured via CFU counts at each time point.

S. aureus CI3 [2] = experiment: Rat rhinosinusitis model, efficacy arm (sinus mucosa CFU, biofilm biomass, histopathology); assay type: in vivo, Sprague Dawley rats; conditions: Sa87, ½ MIC clindamycin or ½ MIC azithromycin only
Source text: Rat nasal tissues were fixed in 10% neutral buffered formalin. Tissue samples were then decalcified using 9.5% nitric acid in 1% ethylenediaminetetracetic acid (EDTA), processed to paraffin wax, and 6 μm sections cut and stained with H&E. The samples were examined by a veterinary pathologist blinded to the treatments given.
An established murine rhinosinusitis model was used with modifications (see YU C-j et al., Chinese Journal of Otorhinolaryngology-Skull Base Surgery 6, 2011; Zhang F et al., Am J Rhinol Allergy 27 (5): 361-366, 2013; and Jin M et al., Ear Arch Oto-Rhino-L 268 (6): 857-861, 2011). […] The sponges were placed at approximately 15 mm from the anterior nostril, located in the ostiomeatal complex. The rats were monitored for a nine-day period to allow for mucosal biofilms to form, and, on the tenth day, the sponges were removed. A two-day recovery was given to the rat before treatments begun. […] Treatments were administered intranasally twice a day for 14 days. Rats were monitored for weight and respiratory alterations (respiration rate; nasal discharge, hyperaemia or pruritus; and sneezing) during treatment, and, 14 days post-treatment initiation, the rats were humanely sacrificed. Their sinus mucosa was harvested for CFU counting, biofilm quantification, histopathology, and phage enumeration. […]
The quantification of biofilm biomass on sinus mucosa was determined using an established protocol (Singhal D et al., editors. Quantitative analysis of in vivo mucosal bacterial biofilms. International Forum of Allergy & Rhinology; 2012: Wiley Online Library (27). Briefly, the frontal sinus mucosa was harvested and placed into Dulbecco's Modified Eagle's Medium (Life Technologies, Carlsbad, CA, United States of America) on ice. One piece of mucosa from each frontal sinus was stained with a LIVE/DEAD® BacLight Bacterial Viability Kit (Life Technologies Australia). The stained mucosa was then examined at 20× magnification using a confocal laser scanning microscope (Zeiss LSM700, Carl Zeiss AG, Oberkochen, Germany). […]

S. aureus CI3 [3] = experiment: Antibiotic sensitivity of the isolate selected for in vivo experiments; assay type: cell-based, Staphylococcus aureus
Method: The minimum inhibitory concentration (MIC) of amoxicillin, vancomycin, erythromycin, clindamycin and azithromycin against the S. aureus strains was assessed using the broth microdilution technique as previously described (Wiegand I et al., Nature protocols 3 (2): 163-175, 2008) and breakpoints defined according to CSLI guidelines. Clinical strains resistant to at least one antibiotic in three or more antibiotic categories were defined as multidrug resistant (MDR).
A fresh culture of CI3 on 1.5% TSA plates was prepared two days before inoculation. A single colony was resuspended in 0.9% saline (ca. 2 ml) to turbidity reading 0.5 McFarland Units and then a 1 in 100 dilution in TSB was cultured overnight one day before the in vivo experiment. CI3 pellets were harvested and resuspended in fresh TSB to reach 2.5×10^9 Colony Forming Units (CFU)/ml.

CCC[C@@H]1C[C@@H](C(=O)N[C@@H]([C@H]2O[C@H](SC)[C@H](O)[C@@H](O)[C@H]2O)[C@H](C)Cl)N(C)C1 [clindamycin]
bacterial viability at 24 hours, single agent [1]: did not significantly affect bacterial viability | histopathology of the maxilloturbinates, single agent (S. aureus CI3 [2]): evidence of cilial denudation and surface epithelial erosion | antibiotic sensitivity of the isolate (S. aureus CI3 [3]): sensitive
